In ChEMBL document CHEMBL5674860, “Optimized Dual-Glo Assay to identify co-culture-induced drug vulnerabilities in 3D CRC models” (2024):

Key:
Format in all cases: functional, Homo sapiens
Parameters in all cases: dose or concentration left out as unconfirmed
Colon cancer organoid [1] = assay: Optimized Dual-Glo assay to identify co-culture induced drug vulnerabilities using donated chemical probes and chemogenomics kinase set in O14 CRC organoid and F14 CAF mono and co-culture. […] Cell viability is reported both mono and co-culture models.
Colon cancer organoid [2] = assay: Optimized Dual-Glo assay to identify co-culture induced drug vulnerabilities using donated chemical probes and chemogenomics kinase set in O06 CRC organoid and F06 CAF mono and co-culture. […] Cell viability is reported both mono and co-culture models.
Colon cancer organoid [3] = assay: Optimized Dual-Glo assay to identify co-culture induced drug vulnerabilities using donated chemical probes and chemogenomics kinase set in O20 CRC organoid and F20 CAF mono and co-culture. […] Cell viability is reported both mono and co-culture models.
[4] = Culture type Co-Culture, Transduced with Lucferase2-P2A-EGFP lentivirus
[5] = Culture type Co-Culture, Transduced with Renilla-dsRed lentivirus
[6] = Culture type Mono-Culture, Transduced with Lucferase2-P2A-EGFP lentivirus
[7] = Culture type Mono-Culture, Transduced with Renilla-dsRed lentivirus

Question: `CN(C)CCOc1ccc(-c2nc(-c3ccncc3)c(-c3ccc4c(c3)CC/C4=N\O)[nH]2)cc1` [SB590885] was tested. Which “Cell Viability” value (Colon cancer organoid [1]; [4]) did it give?
Answer: 125.618%

Question: And the “Cell Viability” value (Colon cancer organoid [1]; [5])?
Answer: 131.894%

Question: What about the “Cell Viability” value (Colon cancer organoid [1]; [6]) of the same compound?
Answer: 138.834%

Question: What about the “Cell Viability” value (Colon cancer organoid [1]; [7]) of the same compound?
Answer: 91.3736%

Question: And the “Cell Viability” value (Colon cancer organoid [2]; [4])?
Answer: 79.2379%

Question: What about the “Cell Viability” value (Colon cancer organoid [2]; [5]) of the same compound?
Answer: 96.48%

Question: What about the “Cell Viability” value (Colon cancer organoid [2]; [6]) of the same compound?
Answer: 138.873%

Question: And the “Cell Viability” value (Colon cancer organoid [2]; [7])?
Answer: 135.694%

Question: What about the “Cell Viability” value (Colon cancer organoid [3]; [4]) of the same compound?
Answer: 155.192%

Question: What about the “Cell Viability” value (Colon cancer organoid [3]; [5]) of the same compound?
Answer: 68.1541%

Question: What about the “Cell Viability” value (Colon cancer organoid [3]; [6]) of the same compound?
Answer: 66.5679%

Question: And the “Cell Viability” value (Colon cancer organoid [3]; [7])?
Answer: 111.294%

Question: `COc1ncc(-c2ccc3nccc(-c4ccnnc4)c3c2)cc1NS(=O)(=O)c1ccc(F)cc1F` [OMIPALISIB] was tested. Which “Cell Viability” value (Colon cancer organoid [1]; [4]) did it give?
Answer: 1.562%

Question: What about the “Cell Viability” value (Colon cancer organoid [1]; [5]) of the same compound?
Answer: 61.2077%

Question: And the “Cell Viability” value (Colon cancer organoid [1]; [6])?
Answer: 2.831%

Question: What about the “Cell Viability” value (Colon cancer organoid [1]; [7]) of the same compound?
Answer: 44.5325%

Question: What about the “Cell Viability” value (Colon cancer organoid [2]; [4]) of the same compound?
Answer: 2.362%

Question: What about the “Cell Viability” value (Colon cancer organoid [2]; [5]) of the same compound?
Answer: 34.7423%

Question: And the “Cell Viability” value (Colon cancer organoid [2]; [6])?
Answer: 3.227%

Question: And the “Cell Viability” value (Colon cancer organoid [2]; [7])?
Answer: 27.5983%

Question: And the “Cell Viability” value (Colon cancer organoid [3]; [4])?
Answer: 2.277%

Question: What about the “Cell Viability” value (Colon cancer organoid [3]; [5]) of the same compound?
Answer: 94.8256%

Question: And the “Cell Viability” value (Colon cancer organoid [3]; [6])?
Answer: 1.422%

Question: And the “Cell Viability” value (Colon cancer organoid [3]; [7])?
Answer: 74.6652%

Question: How did the “Cell Viability” value (Colon cancer organoid [1]; [4]) turn out when `COc1ncc(F)cc1CNc1ccc(Cc2c[nH]c3ncc(C)cc23)c(F)n1` [PLX-5622] was run?
Answer: 95.8839%

Question: What about the “Cell Viability” value (Colon cancer organoid [1]; [5]) of the same compound?
Answer: 46.3569%

Question: And the “Cell Viability” value (Colon cancer organoid [1]; [6])?
Answer: 130.226%

Question: What about the “Cell Viability” value (Colon cancer organoid [1]; [7]) of the same compound?
Answer: 44.2586%

Question: And the “Cell Viability” value (Colon cancer organoid [2]; [4])?
Answer: 82.7626%

Question: What about the “Cell Viability” value (Colon cancer organoid [2]; [5]) of the same compound?
Answer: 63.3822%

Question: And the “Cell Viability” value (Colon cancer organoid [2]; [6])?
Answer: 93.414%

Question: And the “Cell Viability” value (Colon cancer organoid [2]; [7])?
Answer: 61.0678%

Question: What about the “Cell Viability” value (Colon cancer organoid [3]; [4]) of the same compound?
Answer: 205.726%

Question: What about the “Cell Viability” value (Colon cancer organoid [3]; [5]) of the same compound?
Answer: 55.6932%

Question: What about the “Cell Viability” value (Colon cancer organoid [3]; [6]) of the same compound?
Answer: 133.198%

Question: And the “Cell Viability” value (Colon cancer organoid [3]; [7])?
Answer: 66.7491%

Question: How did the “Cell Viability” value (Colon cancer organoid [1]; [4]) turn out when `O=C(NOCC1CC1)c1ccc(F)c(F)c1Nc1ccc(I)cc1Cl` [CI-1040] was run?
Answer: 16.7737%

Question: And the “Cell Viability” value (Colon cancer organoid [1]; [5])?
Answer: 86.2158%

Question: What about the “Cell Viability” value (Colon cancer organoid [1]; [6]) of the same compound?
Answer: 10.461%

Question: What about the “Cell Viability” value (Colon cancer organoid [1]; [7]) of the same compound?
Answer: 42.9063%

Question: And the “Cell Viability” value (Colon cancer organoid [2]; [4])?
Answer: 38.2974%

Question: And the “Cell Viability” value (Colon cancer organoid [2]; [5])?
Answer: 73.8424%

Question: And the “Cell Viability” value (Colon cancer organoid [2]; [6])?
Answer: 7.023%

Question: And the “Cell Viability” value (Colon cancer organoid [2]; [7])?
Answer: 67.7326%

Question: And the “Cell Viability” value (Colon cancer organoid [3]; [4])?
Answer: 43.8229%

Question: What about the “Cell Viability” value (Colon cancer organoid [3]; [5]) of the same compound?
Answer: 195.336%

Question: And the “Cell Viability” value (Colon cancer organoid [3]; [6])?
Answer: 27.7103%

Question: And the “Cell Viability” value (Colon cancer organoid [3]; [7])?
Answer: 59.0843%

Question: How did the “Cell Viability” value (Colon cancer organoid [1]; [4]) turn out when `OCCn1cc(-c2cnc3nnn(Cc4ccc5ncccc5c4)c3n2)cn1` [PF-04217903] was run?
Answer: 71.8183%

Question: And the “Cell Viability” value (Colon cancer organoid [1]; [5])?
Answer: 123.95%

Question: What about the “Cell Viability” value (Colon cancer organoid [1]; [6]) of the same compound?
Answer: 91.8486%

Question: What about the “Cell Viability” value (Colon cancer organoid [1]; [7]) of the same compound?
Answer: 91.0833%

Question: What about the “Cell Viability” value (Colon cancer organoid [2]; [4]) of the same compound?
Answer: 88.0795%

Question: And the “Cell Viability” value (Colon cancer organoid [2]; [5])?
Answer: 107.387%

Question: What about the “Cell Viability” value (Colon cancer organoid [2]; [6]) of the same compound?
Answer: 104.073%

Question: And the “Cell Viability” value (Colon cancer organoid [2]; [7])?
Answer: 94.3108%

Question: What about the “Cell Viability” value (Colon cancer organoid [3]; [4]) of the same compound?
Answer: 121.611%

Question: And the “Cell Viability” value (Colon cancer organoid [3]; [5])?
Answer: 97.2338%

Question: What about the “Cell Viability” value (Colon cancer organoid [3]; [6]) of the same compound?
Answer: 113.154%

Question: And the “Cell Viability” value (Colon cancer organoid [3]; [7])?
Answer: 101.829%

Question: Which results are given for `O=C1c2ccc(Nc3ccc(F)cc3F)cc2CCc2ccc(OC[C@H](O)CO)cc21` [Skepinone-L]?
Answer: Cell Viability (Colon cancer organoid [1]; [4]): 150.905%; Cell Viability (Colon cancer organoid [1]; [5]): 93.4936%; Cell Viability (Colon cancer organoid [1]; [6]): 165.429%; Cell Viability (Colon cancer organoid [1]; [7]): 90.897%; Cell Viability (Colon cancer organoid [2]; [4]): 115.343%; Cell Viability (Colon cancer organoid [2]; [5]): 88.0925%; Cell Viability (Colon cancer organoid [2]; [6]): 155.18%; Cell Viability (Colon cancer organoid [2]; [7]): 90.6486%; Cell Viability (Colon cancer organoid [3]; [4]): 88.3042%; Cell Viability (Colon cancer organoid [3]; [5]): 86.6611%; Cell Viability (Colon cancer organoid [3]; [6]): 113.922%; Cell Viability (Colon cancer organoid [3]; [7]): 95.9781%

Question: `CC1(C)C(N)=Nc2cc(OCCCCN3Cc4ccc(OCc5cn(CC(=O)N6CCC(CCN7CCCC7)CC6)nn5)cc4C3)c(OCC3CC3)cc21` was tested. Which “Cell Viability” value (Colon cancer organoid [1]; [4]) did it give?
Answer: 75.997%

Question: What about the “Cell Viability” value (Colon cancer organoid [1]; [5]) of the same compound?
Answer: 107.884%

Question: And the “Cell Viability” value (Colon cancer organoid [1]; [6])?
Answer: 116.341%

Question: And the “Cell Viability” value (Colon cancer organoid [1]; [7])?
Answer: 106.753%

Question: And the “Cell Viability” value (Colon cancer organoid [2]; [4])?
Answer: 65.2251%

Question: And the “Cell Viability” value (Colon cancer organoid [2]; [5])?
Answer: 114.368%

Question: What about the “Cell Viability” value (Colon cancer organoid [2]; [6]) of the same compound?
Answer: 80.2418%

Question: And the “Cell Viability” value (Colon cancer organoid [2]; [7])?
Answer: 105.711%

Question: What about the “Cell Viability” value (Colon cancer organoid [3]; [4]) of the same compound?
Answer: 70.4635%

Question: What about the “Cell Viability” value (Colon cancer organoid [3]; [5]) of the same compound?
Answer: 125.652%

Question: What about the “Cell Viability” value (Colon cancer organoid [3]; [6]) of the same compound?
Answer: 114.565%

Question: And the “Cell Viability” value (Colon cancer organoid [3]; [7])?
Answer: 111.957%

Question: How did the “Cell Viability” value (Colon cancer organoid [1]; [4]) turn out when `C=CC(=O)N1CCC([C@@H]2CCNc3c(C(N)=O)c(-c4ccc(Oc5ccccc5)cc4)nn32)CC1` [ZANUBRUTINIB] was run?
Answer: 47.5574%

Question: And the “Cell Viability” value (Colon cancer organoid [1]; [5])?
Answer: 261.02%

Question: What about the “Cell Viability” value (Colon cancer organoid [1]; [6]) of the same compound?
Answer: 57.577%

Question: And the “Cell Viability” value (Colon cancer organoid [1]; [7])?
Answer: 123.54%

Question: And the “Cell Viability” value (Colon cancer organoid [2]; [4])?
Answer: 36.1998%

Question: And the “Cell Viability” value (Colon cancer organoid [2]; [5])?
Answer: 136.235%

Question: What about the “Cell Viability” value (Colon cancer organoid [2]; [6]) of the same compound?
Answer: 10.7372%

Question: What about the “Cell Viability” value (Colon cancer organoid [2]; [7]) of the same compound?
Answer: 131.234%

Question: And the “Cell Viability” value (Colon cancer organoid [3]; [4])?
Answer: 8.425%

Question: And the “Cell Viability” value (Colon cancer organoid [3]; [5])?
Answer: 202.782%

Question: And the “Cell Viability” value (Colon cancer organoid [3]; [6])?
Answer: 10.0679%

Question: What about the “Cell Viability” value (Colon cancer organoid [3]; [7]) of the same compound?
Answer: 138.33%

Question: How did the “Cell Viability” value (Colon cancer organoid [1]; [4]) turn out when `CN(C)C(=O)/C(C#N)=C/c1ccc(-c2nc3cnc4c(ccn4C)c3n2C2CCCCC2)o1` was run?
Answer: 95.1732%

Question: What about the “Cell Viability” value (Colon cancer organoid [1]; [5]) of the same compound?
Answer: 102.012%

Question: What about the “Cell Viability” value (Colon cancer organoid [1]; [6]) of the same compound?
Answer: 142.854%

Question: What about the “Cell Viability” value (Colon cancer organoid [1]; [7]) of the same compound?
Answer: 112.554%

Question: What about the “Cell Viability” value (Colon cancer organoid [2]; [4]) of the same compound?
Answer: 100.774%

Question: And the “Cell Viability” value (Colon cancer organoid [2]; [5])?
Answer: 167.563%

Question: And the “Cell Viability” value (Colon cancer organoid [2]; [6])?
Answer: 117.157%

Question: What about the “Cell Viability” value (Colon cancer organoid [2]; [7]) of the same compound?
Answer: 133.695%

Question: And the “Cell Viability” value (Colon cancer organoid [3]; [4])?
Answer: 49.7098%

Question: What about the “Cell Viability” value (Colon cancer organoid [3]; [5]) of the same compound?
Answer: 127.191%

Question: And the “Cell Viability” value (Colon cancer organoid [3]; [6])?
Answer: 136.658%

Question: And the “Cell Viability” value (Colon cancer organoid [3]; [7])?
Answer: 125.979%
